Measured values taken from patent US6765105B2, “Compound and pharmaceutical composition of antiplasmid effect and the preparation thereof” (priority 2000, dated 2004).
“Also recorded” adds a separate entry of the source. Like-named read-outs stand apart in the source and are kept apart here. Marks after values point to notes of the source that are not given here.

Tests used:
E. coli = test: Bacteriostatic effect (MIC), serial dilution in liquid culture medium; type: cell-based
[1] = tested on: E. coli K12 F′lac (PBR322) plasmid; type: cell-based
Experimental: (§1) We made a dilution of 10^−4 from a preliminary culture of 16 hours of E. coli strains containing R-factor, and dosed 0.05 ml therefrom into a broth culture medium MTE of 5 ml. We completed the cultures with the examined compounds in different concentrations and kept them at the temperature 37° C. during 24 to 48 hours without aeration. We made different dilutions from the cultures and streaked 0.1 ml of them onto EP agar plates. Having incubated them during the night we made a replication from the plates containing the cultures onto plates containing the corresponding antibiotics.
The plates containing antibiotics were incubated at 37° C. during 24 hours then the settlements of bacteria on them were compared to those on the master plates and the requirement of nutrition of the bacteria was examined.

[2] = tested on: F′lac plasmid of E. coli K12; type: cell-based
Experimental: (§2) We made a dilution of 10^−4 from a culture of 16 hours of the bacteria strain K12 LE140 of E. coli and we inoculated 0.05 ml (1 to 5×10^3 cells) of it into 5 ml of broth culture medium MTE. The cultures with plasmid eliminating compounds added in different concentrations were incubated at 37° C. during 24 hours. We made dilutions from the contents of tubes, in which growth of bacteria were detected, then 0.1 ml of these dilutions were streaked onto EMB agar. The plates were incubated at 37° C. during 24 hours, then we counted the settlements of bacteria of types lac^+ and lac^−, which provides basis to calculate the percent of inhibition.

plasmid = test: In vitro experiments for antiplasmid effect (plasmid eliminating ability); type: cell-based; details: for Eliminating ability (in words) / Plasmid eliminating ability: in vitro; for Plasmid eliminating ability: in concentration of 50 μg/ml
Source text: The elimination of R-plasmids and F′lac plasmids, as well as inhibition of transmission of R-plasmid transfer were studied.
These are the compounds under mark FC-1181, FC-1186 and Sila-439. The compound sila-429 (75%) was compared against three representatively antibiotic resistant strains of bacteria, as follows: the polyresistant Acinetobacter anitratus, the resistant to gentamycine staphylococcus aureus and the Methycilline resistant Staphylococcus aureus strains.
as §1, §2

[3] = tested on: RN 4220 S. aureus, plasmid pCRG 1600; type: cell-based; details: without substance 2.1
[4] = tested on: RN 4220 S. aureus, plasmid pIP 855; type: cell-based; details: without substance 1.8
[5] = tested on: RN 4220 S. aureus, plasmid pIP 856; type: cell-based; details: without substance 2.3
[6] = tested on: RN 4220 S. aureus, plasmid pBI 109 PGL; type: cell-based; details: without substance 68.7
[7] = tested on: E. coli K 12 F′lac1 donor to E coliχ1037 recipient
Experimental: (§3) We made tenfold dilutions of fresh donor culture of E. coli C600 R144 drd-3 and of fresh recipient culture resistant to i^r and in some cases to nalid-x acid of E. coli K12 W1 at optical density of 0.4 ([…]), then we mixed together 1.0 ml of donor culture and 1.0 ml of recipient culture and kept the samples at the temperature 37° C. 0 to 24 hours in presence of the applied compounds.
(§4) As control the mixture of donor and recipient cultures of the same proportion was incubated.
(§5) We performed experiments of two types to clarify the manner of action. The donor cells were previously treated during 5 minutes with the compound to be examined being in corresponding concentration, and the recipient cells were added thereafter in the experiments of one type The compounds to be examined were added 5 minutes after mixing together the donor and recipient cultures in the experiments of the other type. The target of our examinations was the inhibition of the conjugated transfer at the formed pairs. We made tenfold dilutions of the samples with physiological saline solution, the formed pairs of cells were divided by shaking during 1 minute then we made following dilutions where no more resistance transfer passed (see. Beverley and fellow-workers, 1981).
(§6) We streaked quantities of 0.1 ml form the dilutions onto MTE agar plates containing 50 μg/ml of kanamycine and onto plates containing 500 μg/ml of sodium azide to determine the number of recombinants. The number of donor bacteria was established only on the culture medium containing kanamycine, the number of recipient ones was established only on the culture medium containing sodium azide. The plates were kept during 48 hours at 37° C.

[8] = tested on: E. coli K12 F′lac2 donor to E. coliχ1037 recipient
Experimental: as §3, §4, §5, §6

[9] = tested on: E. coli K12 J5-3 (R16) donor to E. coliχ1037 recipient; details: donor E. coli K12 J5-3 (R16)
Experimental: as §3, §4, §5, §6

[10] = tested on: E. coli K12 J5-3 (R27) donor to E. coliχ1037 recipient; details: donor E. coli K12 J5-3 (R27)
Experimental: as §3, §4, §5, §6

[11] = tested on: E. coli K12 J5-3 (R386) donor to E. coliχ1037 recipient; details: donor E. coli K12 J5-3 (R386)
Experimental: as §3, §4, §5, §6

[12] = tested on: Acinetobactes anitratus (resistant to Chlorocid)
Experimental: (§7) The bacteriostatic effect was inspected on a liquid culture medium using method of serial dilution. We inoculated 0.05 ml of culture of the examined bacteria being in exponential phase (i.e. of optical density 0.4) in dilution by 10^−4 into broth culture medium MTE of 5 ml. The culture of E. coli of optical density 0.4 contained 4.1 to 5.2×10^8, the one of Staphylococcus aureus of similar density contained 2.2 to 8.2×10^7 settlement building units per ml. […] We examined thereafter the smallest concentration of each compound, which still inhibits the proliferation of the identical number of bacteria. The examinations for the antiplasmid effect could be begun after having been obtained the mentioned date, because these effects can be detected only at values lower than MIC.
(§8) The previously established MIC (minimal inhibiting concentration) values are as follows: […]

[13] = tested on: Escherichia coli (resistant to Chlorocid)
Experimental: as §7, §8

[14] = tested on: Staphylococcus aureus (resistant to gentamycine)
Experimental: as §7, §8

mice = tested on: mice
Experimental: We used the usual dose of inoculation i.e. 0,2 ml per 10 g weight. […] The exact definition of this value should be done in an institute dealing with toxicology and clinical pharmacology.

[15] = concentration of elimination 25 mg/ml
[16] = concentration of elimination 33 mg/ml
[17] = concentration of elimination 18 mg/ml
[18] = second line for FC-2006/C, concentration of elimination not given
[19] = concentration of elimination 62,5 mg/ml
[20] = concentration of elimination 312, mg/ml
[21] = dose of 500 mg/kg, intraperitoneal, 5 mice

With `CCCC[Si](C)(C)COc1ccc(C(=O)OCCC[N+](C)(C)C)cc1.[I-]` [FC-2012, 4-(dimethyl-n-butyl-silil-methyloxy)-benzoic acid-3-dimethylamino-propyl-ester-methoiodide] the MIC (E. coli) was 39 mg/mL, the “Frequency of elimination (%) ApTC” value [1, 15] was 2% and the “Frequency of elimination (%) TC” value [1, 15] was 10%. For the same molecule, the “Frequency of elimination (%) ApTC” value [1, 16] was 27%, the “Frequency of elimination (%) TC” value [1, 16] was 58% and the “Frequency of elimination (%) Lac” value [2, 15] was 0%. The “Frequency of elimination (%) Lac” value [2, 16] was 0%, the “Eliminating ability (in words)” value (plasmid) was “good eliminating ability” and the “Frequency of elimination (%)” value ([3]; plasmid pCRG 1600, 7.8 μg/ml) was 10.1%. For the same molecule, the “Frequency of elimination (%)” value ([4]; plasmid pIP 855, 7.8 μg/ml) was 41.9%, the “Frequency of elimination (%)” value ([5]; plasmid pIP 856, 7.8 μg/ml) was 34.6% and the “Frequency of elimination (%)” value ([6]; plasmid pBI 109 PGL, 7.,8 μg/ml) was 88.0%. The Frequency of transfer ([7]; donor E. coli K 12 F′lac1, in concentration of 15 μg/ml, without substance 0.8 × 10^−6) was 0**, the Frequency of transfer ([8]; donor E. coli K12 F′lac2, in concentration of 15 μg/ml, without substance 0.2 × 10^−5) was 0** and the Frequency of transfer ([9]; in concentration of 30 μg/ml, without substance 1.2 × 10^−2) was 1 × 10^−3***. For the same molecule, the Frequency of transfer ([10]; in concentration of 30 μg/ml, without substance 2.5 × 10^−4) was 2.3 × 10^−4*** and the Frequency of transfer ([11]; in concentration of 30 μg/ml, without substance 0.4) was 0.6 × 10^−1***.
With “4(dimethyl-n-butyl-silil-methyloxy)-benzoic acid-(3-pyridyl)-methylester-methoiodide [FC-2006/C]” the MIC (E. coli) was 25 mg/mL, the “Frequency of elimination (%) ApTC” value [1, 17] was 0% and the “Frequency of elimination (%) TC” value [1, 17] was 0%. For the same molecule, the “Frequency of elimination (%) ApTC” value [1, 18] was 0%, the “Frequency of elimination (%) TC” value [1, 18] was 0% and the “Frequency of elimination (%) Lac” value [2, 17] was 0%. The “Frequency of elimination (%) Lac” value [2, 18] was 0%, the Plasmid eliminating ability (plasmid) was “outstanding plasmid eliminating ability” and the “Eliminating ability (in words)” value (plasmid) was “good eliminating ability”. The Eliminating effect (plasmid; only to one E. coli plasmid) was ~100%, the “Frequency of elimination (%)” value ([3]; plasmid pCRG 1600, 9.5 μg/ml) was 32.6% and the “Frequency of elimination (%)” value ([4]; plasmid pIP 855, 9.5 μg/ml) was 69.2%. The “Frequency of elimination (%)” value ([5]; plasmid pIP 856, 9.5 μg/ml) was 75.1%, the “Frequency of elimination (%)” value ([6]; plasmid pBI 109 PGL, 9.5 μg/ml) was 94.4% and the Frequency of transfer ([7]; donor E. coli K 12 F′lac1, in concentration of 24.7 μg/ml, without substance 0.6 × 10^−6) was 2.2 × 10^−6. For the same molecule, the Frequency of transfer ([8]; donor E. coli K12 F′lac2, in concentration of 24.7 μg/ml, without substance 0.6 × 10^−6) was 3 × 10^−6, the Frequency of transfer ([9]; in concentration of 24.7 μg/ml, without substance 0.3 × 10^−1) was 0.3 × 10^−3 and the Frequency of transfer ([10]; in concentration of 24.7 μg/ml, without substance 0.2 × 10) was 0.2 × 10^−1. The Frequency of transfer ([11]; in concentration of 24.7 μg/ml, without substance 0.5 × 10^−1) was 0.9 × 10^−2.
For `CC[n+]1c(-c2ccccc2)c2cc(N)ccc2c2ccc(N)cc21` [Ethidium bromide, reference compound], the “Frequency of elimination (%) ApTC” value [1, 19] was 24%, the “Frequency of elimination (%) TC” value [1, 19] was 30% and the “Frequency of elimination (%) ApTC” value [1, 20] was 0%. The “Frequency of elimination (%) TC” value [1, 20] was 10%, the “Frequency of elimination (%) Lac” value [2, 19] was 0% and the “Frequency of elimination (%) Lac” value [2, 20] was 0%. For the same molecule, the “Frequency of elimination (%)” value ([3]; plasmid pCRG 1600, 62.5 μg/ml) was 2.8%, the “Frequency of elimination (%)” value ([4]; plasmid pIP 855, 1.95 μg/ml) was 9.4% and the “Frequency of elimination (%)” value ([5]; plasmid pIP 856, 1.95 μg/ml) was 12.3%. For the same molecule, the “Frequency of elimination (%)” value ([6]; plasmid pBI 109 PGL, 3.9 μg/ml) was 88.2%.
`C[N+](C)(C)CCOC(=O)c1ccc(OCCC[Si](C)(C)C)cc1.[I-]` [Sila-439, 4-(3-trimethyl-silil-propyloxy)-benzoic acid-2-dimethyl-amino-ethyl-ester-methoiodide] was tested, and the “MIC (minimal inhibiting concentration)” value [12] was 0.08 mg/mL, the “MIC (minimal inhibiting concentration)” value [13] was 0.07 mg/mL and the “MIC (minimal inhibiting concentration)” value [14] was 180 μ/ml. For the same molecule, the “Concentration at which the antiplasmid effect manifests” value (plasmid) was 40 µg/mL, the Plasmid eliminating ability (plasmid) was “outstanding plasmid eliminating ability” and the “Eliminating ability (in words)” value (plasmid) was “extraordinary good eliminating ability; also recorded: very good plasmid elimination effect”. The “Antiplasmid effect in in vitro experiments” value (plasmid; three compounds effective from 36 studied) was “effective”, the “Toxicity (i.p), mice alive per mice inoculated” value (mice; 50 mg/kg (0.01 ml/mouse) i.p., 2 hours) was 5/5 and the “Toxicity (i.p), mice alive per mice inoculated” value (mice; 50 mg/kg (0.01 ml/mouse) i.p., 6 hours) was 5/5. For the same molecule, the “Toxicity (i.p), mice alive per mice inoculated” value (mice; 50 mg/kg (0.01 ml/mouse) i.p., 9 hours) was 5/5, the “Toxicity (i.p), mice alive per mice inoculated” value (mice; 50 mg/kg (0.01 ml/mouse) i.p., 12 hours) was 5/5 and the “Toxicity (i.p), mice alive per mice inoculated” value (mice; 50 mg/kg (0.01 ml/mouse) i.p., 24 hours) was 5/5. The “Toxicity (i.p), mice alive per mice inoculated” value (mice; 500 mg/kg (0.1 ml/mouse) i.p., 2 hours) was 0/5, the “Condition of the mice after inoculation” value (mice; dose of 50 mg/kg, intraperitoneal) was “lived and moved vividly exactly like those in the control group” and the Mortality after inoculation (mice; [21]) was “all the five mice died”. For the same molecule, the Spasms after inoculation (mice; [21]) was “spasms occurred in the 5 inoculated mice in two minutes”.
